Assay results: patent US20120115900A1, “SUBSTITUTED NAPHTHYRIDINE DERIVATIVES AND THEIR MEDICAL USE” (NEUROSEARCH A/S, priority 2009, published 2012)

How the values were obtained:
human Kv7.2+3 = biological target: T1, human Kv7.2+3 (Homo sapiens, UniProt O43525+O43526); assay: FLIPR-based characterization of Kv7.2+3 modulators (thallium (I) sensitive BTC fluorescence assay); format: cell-based; conditions: HEK293 cells over-expressing human Kv7.2+3, mean of at least two test runs; for EC50: Tl+ influx, FLIPR, 50% of channel activity compared to retigabine control responses; for Emax: maximal response relative to the reference (retigabine) response, read-out: Efficacy
T1 construct: expressed in transfected cells; host or cells: HEK293
Method: FLIPR-Based Characterization of Kv7.2+3 Modulators
This experiment determines the ability of a test compound to modulate the activity of Kv7.2+3 channels heterologously expressed in human HEK293 cells. The ability is determined relative to retigabine. The activity is determined using a standard thallium (I) sensitive assay, e.g. using a fluorometric method in a Fluorescent Image Plate Reader (FLIPR) as described below in more detail.
Full concentration/response curves are generated and EC50 values are calculated based on max values. EC50 values (Effective Concentration) represent the concentration of the test substance, at which 50% of the channel activity is obtained when compared to retigabine control responses. Maximal response determined relative to the reference (retigabine) response is calculated.
Human HEK293 cells over-expressing human Kv7.2+3 are grown in culture medium (DMEM supplemented with 10% foetal bovine serum), in polystyrene culture flasks ([…]) in a humidified atmosphere of 5% CO2 in air, at 37° C. Cell confluence should be 80-90% on day of plating. Cells are rinsed with 4 ml of PBS (phosphate buffered saline) and incubated 2 min with 1 ml of Trypsin-EDTA. After addition of 25 ml of culture medium cells are re-suspended by trituration with a 25 ml pipette.
The cells are seeded at a density of ˜3×10^6 cells/ml (25 μl/well) in blackwalled, clear bottom, 384-well plates pre-treated with 0.01 g/l poly-D-lysin (20 μl/well for ≧30 min). Plated cells were allowed to proliferate for 24 h before loading with dye.
BTC-AM (50 mg, Invitrogen) is added 25.5 μl DMSO. The BTC-AM stock solution (2 mM) is diluted to a final concentration of 2 μM in Cl^− free assay buffer (in mM: 140 Na^+-gluconate, 2.5 K^+-gluconate, 6 Ca2^+-gluconate, 1 Mg^2+gluconate, 5 glucose, 10 HEPES, pH 7.3) containing 2 μM ouabain, 2 mM amaranth and 1 mM tartrazine.
The culture medium is aspirated from the wells, the cells are washed thrice in Cl^− free assay buffer, and 25 μl of the BTC-AM loading solution is added to each well. The cells are incubated at 37° C. for 60 min.
After the loading period, the TI^+-sensitive BTC fluorescence signal is measured over time using a FLIPR.
• Temperature: Room temp. • First addition: 12 μl test or control compound after 15 sec at a rate of 30 μl/sec and starting height of 20 μl • Second addition: 12 μl stimulus buffer (Cl^− free assay buffer supplemented with 1 mM Tl2SO4, 5 mM K2SO4 as well as the quenchers amaranth (2 mM) and tartrazine (1 mM)) is added after an additional 3 minutes at a rate of 30 μl/sec and starting height of 30 μl • Reading intervals: First sequence—3 sec×5, 2 sec×24 and 5 sec×25 Second sequence—1 sec×5, 2 sec×24 and 5 sec×36 Addition plates (compound plate and stimulus plate) are placed in positions 2 and 3, respectively. Cell plates are placed in position 1 and run using the “KCNQ (two additions)” program. FLIPR will then take the appropriate measurements in accordance with the interval settings above. Fluorescence obtained after stimulation is corrected for the mean basal fluorescence (in Cl^− free assay buffer).
Full concentration/response curves are generated and EC50 values (“Effective Concentration”; the concentration at which 50% of the channel activity is obtained when compared to retigabine control responses) are calculated based on peak values. Maximal response determined relative to the reference (retigabine) response is calculated. Data are given as mean of at least two test runs

| Structure (SMILES) | EC50 (human Kv7.2+3) [nM] | Emax (human Kv7.2+3) [%] | melting point [°C] |
| --- | --- | --- | --- |
| Cc1ccoc1C(=O)Nc1c(C)cc(N2CCc3ncccc3C2)nc1N1CC[C@@H](F)C1 [Compound 1.4, N-[6-(7,8-dihydro-5H-1,6-naphthyridin-6-yl)-2-[(3R)-3-fluoropyrrolidin-1-yl]-4-methyl-3-pyridyl]-3-methyl-furan-2-carboxamide] | 85 | 101 | – |
| Cc1cc(N2CCc3ncccc3C2)nc(N2CCC(F)(F)CC2)c1NC(=O)c1cnsc1C [Compound 1.19, N-[2-(4,4-difluoro-1-piperidyl)-6-(7,8-dihydro-5H-1,6-naphthyridin-6-yl)-4-methyl-3-pyridyl]-5-methyl-isothiazole-4-carboxamide] | 5200 | 71 | – |
| Cc1cc(N2CCc3ncccc3C2)nc(N2CCC(F)(F)CC2)c1NC(=O)c1scnc1C [Compound 1.10, N-[2-(4,4-difluoro-1-piperidyl)-6-(7,8-dihydro-5H-1,6-naphthyridin-6-yl)-4-methyl-3-pyridyl]-4-methyl-thiazole-5-carboxamide] | 6900 | 115 | – |
| Cc1cc(N2CCc3ncccc3C2)nc(N2CCC(F)(F)CC2)c1NC(=O)c1ncoc1C [Compound 1.9, N-[2-(4,4-difluoro-1-piperidyl)-6-(7,8-dihydro-5H-1,6-naphthyridin-6-yl)-4-methyl-3-pyridyl]-5-methyl-oxazole-4-carboxamide] | 50 | 105 | – |
| Cc1ccoc1C(=O)Nc1c(C)cc(N2CCc3ncccc3C2)nc1N1CCC(F)(F)CC1 [Compound 1.6, N-[2-(4,4-difluoro-1-piperidyl)-6-(7,8-dihydro-5H-1,6-naphthyridin-6-yl)-4-methyl-3-pyridyl]-3-methyl-furan-2-carboxamide] | 19 | 81 | – |
| CCOC(=O)Nc1c(C)cc(N2CCc3ncccc3C2)nc1N1CCC(F)(F)CC1 [Compound 1.20, ethyl N-[2-(4,4-difluoro-1-piperidyl)-6-(7,8-dihydro-5H-1,6-naphthyridin-6-yl)-4-methyl-3-pyridyl]-carbamate] | 280 | 100 | – |
| Cc1cc(N2CCc3ncccc3C2)nc(N2CCC(F)(F)CC2)c1NC(=O)c1ncoc1C1CC1 [Compound 1.18, 5-cyclopropyl-N-[2-(4,4-difluoro-1-piperidyl)-6-(7,8-dihydro-5H-1,6-naphthyridin-6-yl)-4-methyl-3-pyridyl]oxazole-4-carboxamide] | 73 | 34 | – |
| Cc1cc(N2CCc3ncccc3C2)nc(N2CCCC2)c1NC(=O)Cc1cc(F)cc(F)c1 [Compound 1.1, 2-(3,5-Difluoro-phenyl)-N-[6-(7,8-dihydro-5H-[1,6]naphthyridin-6-yl)-4-methyl-2-pyrrolidin-1-yl-pyridin-3-yl]-acetamide] | 67 | 96 | 203 to 206 |
| Cc1cc(N2CCc3ncccc3C2)nc(N2CCC(F)(F)CC2)c1NC(=O)CC1CC1 [Compound 1.13, 2-cyclopropyl-N-[2-(4,4-difluoro-1-piperidyl)-6-(7,8-dihydro-5H-1,6-naphthyridin-6-yl)-4-methyl-3-pyridyl]-acetamide] | 1100 | 109 | – |
| Cc1cc(N2CCc3ncccc3C2)nc(N2CCC(F)(F)CC2)c1NC(=O)c1ncoc1-c1ccccc1 [Compound 1.17, N-[2-(4,4-difluoro-1-piperidyl)-6-(7,8-dihydro-5H-1,6-naphthyridin-6-yl)-4-methyl-3-pyridyl]-5-phenyl-oxazole-4-carboxamide] | 4600 | 90 | – |
| Cc1cc(N2CCc3ncccc3C2)nc(N2CCC(F)(F)CC2)c1NC(=O)c1ocnc1C [Compound 1.12, N-[2-(4,4-difluoro-1-piperidyl)-6-(7,8-dihydro-5H-1,6-naphthyridin-6-yl)-4-methyl-3-pyridyl]-4-methyl-oxazole-5-carboxamide] | 65 | 100 | – |
| Cc1cccnc1C(=O)Nc1c(C)cc(N2CCc3ncccc3C2)nc1N1CCC(F)(F)CC1 [Compound 1.15, N-[2-(4,4-difluoro-1-piperidyl)-6-(7,8-dihydro-5H-1,6-naphthyridin-6-yl)-4-methyl-3-pyridyl]-3-methyl-pyridine-2-carboxamide] | 2900 | 28 | – |
| Cc1cc(N2CCc3ncccc3C2)nc(N2CCC(F)(F)CC2)c1NC(=O)c1conc1C [Compound 1.11, N-[2-(4,4-difluoro-1-piperidyl)-6-(7,8-dihydro-5H-1,6-naphthyridin-6-yl)-4-methyl-3-pyridyl]-3-methyl-isoxazole-4-carboxamide] | 1200 | 115 | – |
| Cc1nc(C(=O)Nc2c(C)cc(N3CCc4ncccc4C3)nc2N2CCC(F)(F)CC2)c(C)o1 [Compound 1.16, N-[2-(4,4-difluoro-1-piperidyl)-6-(7,8-dihydro-5H-1,6-naphthyridin-6-yl)-4-methyl-3-pyridyl]-2,5-dimethyl-oxazole-4-carboxamide] | 5400 | 116 | – |
| Cc1cc(N2CCc3ncccc3C2)nc(N2CCCC2)c1NC(=O)CC(C)(C)C [Compound 1.2, N-[6-(7,8-Dihydro-5H-[1,6]naphthyridin-6-yl)-4-methyl-2-pyrrolidin-1-yl-pyridin-3-yl]-3,3-dimethyl-butyramide] | 1200 | 121 | – |
| Cc1cc(N2CCc3ncccc3C2)nc(N2CCCC2)c1NC(=O)c1cccc(F)c1 [Compound 1.3, N-[6-(7,8-Dihydro-5H-[1,6]naphthyridin-6-yl)-4-methyl-2-pyrrolidin-1-yl-pyridin-3-yl]-3-fluoro-benzamide] | 5000 | 24 | – |
| CCc1ocnc1C(=O)Nc1c(C)cc(N2CCc3ncccc3C2)nc1N1CCC(F)(F)CC1 [Compound 1.14, N-[2-(4,4-difluoro-1-piperidyl)-6-(7,8-dihydro-5H-1,6-naphthyridin-6-yl)-4-methyl-3-pyridyl]-5-ethyl-oxazole-4-carboxamide] | 20 | 89 | – |
| Cc1cc(N2CCc3ncccc3C2)nc(N2CCC(F)(F)CC2)c1NC(=O)Cc1cc(F)cc(F)c1 [Compound 1.7, 2-(3,5-difluorophenyl)-N-[2-(4,4-difluoro-1-piperidyl)-6-(7,8-dihydro-5H-1,6-naphthyridin-6-yl)-4-methyl-3-pyridyl]-acetamide] | 220 | 104 | – |
| Cc1cc(N2CCc3ncccc3C2)nc(N2CCC(F)(F)CC2)c1NC(=O)c1nccn1C [Compound 1.8, N-[2-(4,4-difluoro-1-piperidyl)-6-(7,8-dihydro-5H-1,6-naphthyridin-6-yl)-4-methyl-3-pyridyl]-1-methyl-imidazole-2-carboxamide] | 1300 | 114 | – |
| Cc1cc(N2CCc3ncccc3C2)nc(N2CC[C@@H](F)C2)c1NC(=O)Cc1cc(F)cc(F)c1 [Compound 1.5, 2-(3,5-difluorophenyl)-N-[6-(7,8-dihydro-5H-1,6-naphthyridin-6-yl)-2-[(3R)-3-fluoropyrrolidin-1-yl]-4-methyl-3-pyridyl]-acetamide] | 190 | 101 | – |
